Measured values taken from patent US5952335A, “Fused polycyclic heterocycle derivatives” (Eisai Co., Ltd., priority 1995, dated 1999).
Counter-ions that a name gives are not always drawn.

The compounds below were run on P388 cells (assay: in vitro Antitumor Test on P388 Cells (Mouse Leukemic Cells), MTT, 3 days). Conditions: 72 h, 3 days incubation.
Type: cell-based
Experimental: P388 cells suspended in RPMI1640 medium (manufactured by Sanko Junyaku) containing 10% of fetal calf serum, (100 U/ml) of penicillin, 100 μg/ml of streptomycin, 5×10^-5 M of mercaptoethanol and 1 mM of sodium pyruvate were pipetted into a 96-well U-bottomed microplate at a ratio of 1.25×10^3 cells (0.1 ml) per well and incubated in a incubator containing 5% of carbon dioxide at 37° C. for a day. A compound of the present invention was dissolved in dimethyl sulfoxide to give a concentration of 10^-2 M and then diluted with the 10% fetal calf serum-containing RPMI1640 culture medium to give a concentration of 10^-4 or 10^-5 M. By taking this concentration as the maximal level, threefold serial dilution was effected with the use of the 10% fetal calf serum-containing RPMI1640 culture medium. Then these dilutions were added to the P388 incubation plate as described above at a ratio of 0.1 ml per well followed by incubation in an incubator containing 5% of carbon dioxide at 37° C. for 3 days. After the completion of the incubation, 0.05 ml/well of a 3.3 mg/ml solution of MTT [3-(4,5-dimethylthiazol-2-yl)-2,5-diphenyltetrazolium bromide] was added thereto and the incubation was continued for additional 2 hours. The microplate was centrifuged and the supernatant was aspirated off from each well. Then the formazan thus formed was dissolved in 0.1 ml of dimethyl sulfoxide and the absorbance thereof at 540 nm measured with a microplate reader was taken as an indication of the viable cell count. In accordance with the following formula, the inhibitory ratio was calculated and the 50% inhibitory concentration (IC50) of the test compound was determined: [formula] wherein T means the absorbance of a well containing the test compound; and C means the absorbance of a well containing no test compound.
With `CN(C)CCn1c(=O)c2cccc3c4c5c(ccc4n(c1=O)c23)C(O)CCC5` (single isomer, unassigned; (+)) [Example 6, (+)-5-[2-(Dimethylamino)ethyl]-10-hydroxy-10,11,12,13-tetrahydro-4H-benzo[c]pyrimido[5,6,1-jk]carbazole-4,6(5H)-dione] the IC50 was 1.7 nM. For `CN(C)CCn1c(=O)c2cccc3c4c5c(ccc4n(c1=O)c23)C(O)CCC5` (centres unmarked) [Example 5, 5-[2-(Dimethylamino)ethyl]-10-hydroxy-10,11,12,13-tetrahydro-4H-benzo[c]pyrimido[5,6,1-jk]carbazole-4,6(5H)-dione], the IC50 was 4.8 nM. With `CN(C)CCn1c(=O)c2cccc3c4c5c(ccc4n(c1=O)c23)C(O)CO5` (centres unmarked) [Example 9, 2,3-Dihydro-8-[2-(dimethylamino)ethyl]-3-hydroxy-7H-furo[3,2-c]pyrimido[5,6,1-jk]carbazole-7,9(8H)-dione] the IC50 was 6.7 nM. Compound `CN(C)CCn1c(=O)c2cccc3c4ccc5sccc5c4n(c1=O)c23` [Example 14, 2-[2-(Dimethylamino)ethyl]-1H-pyrimido[5,6,1-jk]thieno[3,2-a]carbazole-1,3(2H)-dione hydrochloride] has an IC50 of 74 nM. `CN(C)CCn1c(=O)c2cccc3c4c5c(ccc4n(c1=O)c23)C(=O)CCO5` [Example 15, 2,3-Dihydro-9-[2-(dimethylamino)ethyl]-4H,8H-pyrano[3,2-c]pyrimido[5,6,1-jk]carbazole-4,8,10(9H)-trione hydrochloride] was tested, and the IC50 was 140 nM. With `CN(C)CCn1c(=O)c2cccc3c4c5occc(=O)c5ccc4n(c1=O)c23` [Example 16, 9-[2-(Dimethylamino)ethyl]-4H,8H-pyrano[3,2-c]pyrimido [5,6,1-jk]carbazole-4,8,10(9H)-trione hydrochloride] the IC50 was 110 nM. `CN(C)CCn1c(=O)c2cccc3c4ccc5occc5c4n(c1=O)c23` [Example 17, 2-[2-(Dimethylamino)ethyl]-1H-furo[3,2-a]pyrimido[5,6,1-jk]carbazole-1,3(2H)-dione hydrochloride] showed an IC50 of 34 nM. `CN(C)CCn1c(=O)c2cccc3c4ccc5ccccc5c4n(c1=O)c23` [Example 18, 2-[2-(Dimethylamino)ethyl]-1H-benzo[a]pyrimido[5,6,1-jk]carbazole-1,3(2H)-dione hydrochloride] was tested, and the IC50 was 76 nM. For `CN(C)CCCn1c(=O)c2cccc3c4c5ccccc5ccc4n(c1=O)c23` [Example 19, 5-[3-(Dimethylamino)propyl]-4H-benzo[c]pyrimido[5,6,1-jk]carbazole-4,6(5H)-dione hydrochloride], the IC50 was 220 nM. Work on `COc1ccc2c(ccc3c2c2cccc4c(=O)n(CCN(C)C)c(=O)n3c42)c1` [Example 22, 5-[2-(Dimethylamino)ethyl]-11-methoxy-4H-benzo[c]pyrimido [5,6,1-jk]carbazole-4,6(5H)-dione hydrochloride] yielded an IC50 of 290 nM. Compound `COc1cccc2c1ccc1c2c2cccc3c(=O)n(CCN(C)C)c(=O)n1c32` [Example 23, 5-[2-(Dimethylamino)ethyl]-10-methoxy-4H-benzo[c]pyrimido[5,6,1-jk]carbazole-4,6(5H)-dione hydrochloride] has an IC50 of 81 nM. Compound `CN(C)CCn1c(=O)c2c3ccccc3nc3c4ccccc4n(c1=O)c32` [Example 24, 2-[2-(Dimethylamino)ethyl]-1H-benzo[b]pyrimido[1,6,5-lm]-4-azacarbazole-1,3(2H)-dione dihydrochloride] has an IC50 of 320 nM. For `CN(C)CCn1c(=O)c2cccc3c4c5c(ccc4n(c1=O)c23)C(=O)OCC5` [Example 25, 1,2-Dihydro-9-[2-(dimethylamino)ethyl]-4H,8H-pyrano[3,4-c]pyrimido[5,6,1-jk]carbazole-4,8,10(9H)-trione hydrochloride], the IC50 was 28 nM. `CN(C)CCn1c(=O)c2cc([N+](=O)[O-])cc3c2n(c1=O)-c1cc2ccccc2cc1O3` [Example 27, 2-[2-(Dimethylamino)ethyl]-5-nitro-1H-benzo[b]pyrimido [5,6,1-kl]phenoxazine-1,3(2H)-dione hydrochloride] gave an IC50 of 490 nM. For `CN(C)CCn1c(=O)c2cc(Cl)cc3c4c5ccccc5ccc4n(c1=O)c23` [Example 28, 2-Chloro-5-[2-(dimethylamino)ethyl]-4H-benzo[c]pyrimido [5,6,1-jk]carbazole-4,6(5H)-dione hydrochloride], the IC50 was 70 nM. Work on `CN(C)CCn1c(=O)c2cccc3c4c5c(=O)[nH]ccc5ccc4n(c1=O)c23` [Example 29, 9-[2-(Dimethylamino)ethyl]-8H-pyrido[4,3-c]pyrimido[5,6,1-jk]carbazole-1,8,10(2H,9H)-trione hydrochloride] yielded an IC50 of 71 nM. With `CN(C)CCn1c(=O)c2cccc3c4c5ccccc5ncc4n(c1=O)c23` [Example 30, 5-[2-(Dimethylamino)ethyl]-4H-quino[4',3'-4,5]pyrrolo [3,2,1-ij]quinazoline-4,6(5H)-dione dihydrochloride] the IC50 was 32 nM. Compound `CN(C)CCn1c(=O)c2cc(N)cc3c2n(c1=O)-c1cc2ccccc2cc1O3` [Example 31, 5-Amino-2-[2-(dimethylamino)ethyl]-1H-benzo[b]pyrimido [5,6,1-kl]phenoxazine-1,3(2H)-dione dihydrochloride] has an IC50 of 110 nM. Compound `COc1cccc2ccc3c(c4cccc5c(=O)n(CCN(C)C)c(=O)n3c54)c12` [Example 32, 5-[2-(Dimethylamino)ethyl]-13-methoxy-4H-benzo[c]pyrimido [5,6,1-jk]carbazole-4,6(5H)-dione hydrochloride] has an IC50 of 410 nM. With `CN(C)CCCCn1c(=O)c2cccc3c4c5ccccc5ccc4n(c1=O)c23` [Example 34, 5-[4-(Dimethylamino)butyl]-4H-benzo[c]pyrimido[5,6,1-jk]carbazole-4,6(5H)-dione hydrochloride] the IC50 was 450 nM. For `CN(C)CCn1c(=O)c2cccc3c4c5cccnc5ccc4n(c1=O)c23` [Example 36, 9-[2-(Dimethylamino)ethyl]-8H-pyrido[2,3-c]pyrimido[5,6,1-jk]carbazole-8,10(9H)-dione dihydrochloride], the IC50 was 14 nM. With `CN(C)CCn1c(=O)c2cc([N+](=O)[O-])cc3c4c5ccccc5ccc4n(c1=O)c23` [Example 37, 5-[2-(Dimethylamino)ethyl]-2-nitro-4H-benzo[c]pyrimido [5,6,1-jk]carbazole-4,6(5H)-dione hydrochloride] the IC50 was 380 nM. With `Cc1cc2c(=O)n(CCN(C)C)c(=O)n3c4ccc5ccccc5c4c(c1)c23` [Example 38, 5-[2-(Dimethylamino)ethyl]-2-methyl-4H-benzo[c]pyrimido [5,6,1-jk]carbazole-4,6(5H)-dione hydrochloride] the IC50 was 110 nM. `CN(C)CCn1c(=O)c2cccc3c4c5c(ccc4n(c1=O)c23)C(=O)NCC5` [Example 39, 1,2-Dihydro-9-[2-(dimethylamino)ethyl]-8H-pyrido[3,4-c]pyrimido[5,6,1-jk]carbazole-4,8,10(3H,9H)-trione hydrochloride] was tested, and the IC50 was 7.7 nM. Compound `CN(C)CCn1c(=O)c2cccc3c4c5c(ccc4n(c1=O)c23)OCO5` [Example 40, 8-[2-(Dimethylamino)ethyl]-7H-1,3-dioxolo[4,5-c]pyrimido [5,6,1-jk]carbazole-7,9(8H)-dione hydrochloride] has an IC50 of 220 nM. Work on `CN(C)CCn1c(=O)c2cccc3c4c5ccc(Br)cc5ccc4n(c1=O)c23` [Example 41, 11-Bromo-5-[2-(dimethylamino)ethyl]-4H-benzo[c]pyrimido [5,6,1-jk]carbazole-4,6(5H)-dione hydrochloride] yielded an IC50 of 320 nM. Work on `CN(C)CCn1c(=O)c2cccc3c4cc5ccccc5cc4n(c1=O)c23` [Example 42, 2-[2-(Dimethylamino)ethyl]-1H-benzo[b]pyrimido[5,6,1-jk]carbazole-1,3(2H)-dione hydrochloride] yielded an IC50 of 49 nM. In the case of `CN(C)CCn1c(=O)c2cccc3c4c5c(ccc4n(c1=O)c23)CCCC5` [Example 43, 5-[2-(Dimethylamino)ethyl]-10,11,12,13-tetrahydro-4H-benzo[b]pyrimido[5,6,1-jk]carbazole-4,6(5H)-dione hydrochloride], the IC50 is reported as 66 nM. For `CN(C)CCn1c(=O)c2cccc3c4c5c(ccc4n(c1=O)c23)C(=O)C(C)(C)CC5` [Example 44, 12,13-Dihydro-11,11-dimethyl-5-[2-(dimethylamino)ethyl]-4H-benzo[c]pyrimido[5,6,1-jk]carbazole-4,6,10(5H,11H)-trione hydrochloride], the IC50 was 360 nM. `COc1cc2c(=O)n(CCN(C)C)c(=O)n3c4ccc5ccccc5c4c(c1)c23` [Example 45, 5-[2-(Dimethylamino)ethyl]-2-methoxy-4H-benzo[c]pyrimido [5,6,1-jk]carbazole-4,6(5H)-dione hydrochloride] gave an IC50 of 160 nM. Compound `CN(C)CCn1c(=O)c2cccc3c4c5ccc(O)cc5ccc4n(c1=O)c23` [Example 46, 5-[2-(Dimethylamino)ethyl]-11-hydroxy-4H-benzo[c]pyrimido [5,6,1-jk]carbazole-4,6(5H)-dione hydrochloride] has an IC50 of 77 nM. `CN(C)CCn1c(=O)c2cc(N)cc3c4c5ccccc5ccc4n(c1=O)c23` [Example 47, 2-Amino-5-[2-(dimethylamino)ethyl]-4H-benzo[c]pyrimido [5,6,1-jk]carbazole-4,6(5H)-dione dihydrochloride] gave an IC50 of 250 nM.
